Sander's compilation of Henry's law constants (doi:10.1021/je700612b)

Assay: Henry solubility constant Hcp at 298.15 K (mol/(m3 Pa))
Details: reference: Ji et al. (2008)

SMILES | Henry solubility constant Hcp
CC(=O)c1ccccc1 [1-phenylethanone] | 1.2
COc1ccccc1C=O [2-methoxybenzaldehyde] | 10
Cc1ccccc1C=O [2-methylbenzaldehyde] | 0.31
CC(=O)c1ccccc1O [2′-hydroxyacetophenone] | 1
COc1ccccc1C(C)=O [2′-methoxyacetophenone] | 17
CC(=O)c1ccccc1C [2′-methylacetophenone] | 0.76
COc1cccc(C=O)c1 [3-methoxybenzaldehyde] | 5.1
Cc1cccc(C=O)c1 [3-methylbenzaldehyde] | 0.35
COc1cccc(C(C)=O)c1 [3′-methoxyacetophenone] | 19
CC(=O)c1cccc(C)c1 [3′-methylacetophenone] | 1.5
CC(=O)c1ccc(C)cc1 [4'-methylacetophenone] | 1.8
COc1ccc(C=O)cc1 [4-methoxybenzaldehyde] | 24
CCC(=O)c1ccccc1 [phenyl ethyl ketone] | 0.99
